Columns and labels:
[1] = test system: K562; test: Antiproliferative activity against human K562 cells by MTT assay; assay type: functional, cell-based
[2] = test system: MCF7; test: Cytotoxicity against human MCF7 cells; assay type: functional, cell-based
[3] = target: Tubulin (Sus scrofa, UniProt P02554+P02550); test: Inhibition of pig tubulin polymerization by spectrophotometry; assay type: protein assay
[4] = test system: MDA-MB-468; test: Antiproliferative activity against human MDA-MB-468 cells expressing NQO1 by MTT assay; assay type: functional, cell-based

| IC50 [1] [nM] | IC50 [3] [nM] | IC50 [4] [nM] | SMILES | IC50 [2] [nM] |
| --- | --- | --- | --- | --- |
|  |  |  | COc1ccc(/C=C/c2cc(OC)c(OC)c(OC)c2)cc1B(O)O | 470000 |
| 6.7 | 4200 | 4.1 | COc1ccc(/C=C(/C#N)c2cc(OC)c(OC)c(OC)c2)cc1F |  |
| 18.7 | 18500 | 20.3 | COc1ccc(/C=C(\C#N)c2cc(OC)c(OC)c(OC)c2)cc1F |  |
| 49.5 | 35600 | 70.6 | COc1ccc(/C=C(\C#N)c2cc(OC)c(OC)c(OC)c2)cc1Br |  |
| 42.6 | 43800 | 85.3 | COc1ccc(/C=C(\C#N)c2cc(OC)c(OC)c(OC)c2)cc1I |  |
| 30.2 | 25300 | 46.5 | C#Cc1cc(/C=C(\C#N)c2cc(OC)c(OC)c(OC)c2)ccc1OC |  |
| 20.4 | 17400 | 35.7 | COc1ccc(/C=C(\C#N)c2cc(OC)c(OC)c(OC)c2)cc1B(O)O |  |

| SMILES | IC50 [1] [nM] | IC50 [3] [nM] | IC50 [4] [nM] | IC50 [2] [nM] |
| --- | --- | --- | --- | --- |
| COc1ccc(/C=C\c2cc(OC)c(OC)c(OC)c2)cc1F | 7 |  |  |  |
| COc1ccc(/C=C/c2cc(OC)c(OC)c(OC)c2)cc1F | > 2500 |  |  |  |
| COc1ccc(/C=C/c2cc(OC)c(OC)c(OC)c2)cc1Br | 7830 |  |  |  |
| COc1ccc(/C=C\c2cc(OC)c(OC)c(OC)c2)cc1O [COMBRETASTATIN A4] | 2.3 |  | 3.1 |  |

Source: ChEMBL document CHEMBL2157960, “Novel cyanocombretastatins as potent tubulin polymerisation inhibitors” (Bioorg Med Chem Lett, 2012)
